Source: ChEMBL document CHEMBL5291721, “A preclinical secondary pharmacology resource illuminates target-adverse drug reaction associations of marketed drugs” (Nat Commun, 2023)

Tests used:
[1] = target: T1, Peroxisome proliferator-activated receptor gamma (Homo sapiens, UniProt P37231); type: functional
T1 sequence (P37231 whole entry): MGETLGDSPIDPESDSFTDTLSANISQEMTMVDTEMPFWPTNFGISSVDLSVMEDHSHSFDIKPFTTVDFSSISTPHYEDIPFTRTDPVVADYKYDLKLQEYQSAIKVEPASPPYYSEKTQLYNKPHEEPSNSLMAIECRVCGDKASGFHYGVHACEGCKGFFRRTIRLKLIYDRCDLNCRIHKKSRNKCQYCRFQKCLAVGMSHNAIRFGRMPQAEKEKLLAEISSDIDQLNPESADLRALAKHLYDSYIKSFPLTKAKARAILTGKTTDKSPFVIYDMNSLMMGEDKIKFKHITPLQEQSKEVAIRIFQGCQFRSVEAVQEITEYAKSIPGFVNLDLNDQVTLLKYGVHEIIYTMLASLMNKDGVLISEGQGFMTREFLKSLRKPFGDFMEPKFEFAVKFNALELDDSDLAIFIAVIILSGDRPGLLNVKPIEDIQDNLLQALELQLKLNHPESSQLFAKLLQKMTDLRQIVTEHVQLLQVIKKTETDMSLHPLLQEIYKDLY

[2] = target: T2, Alpha-2A adrenergic receptor (Homo sapiens, UniProt P08913)
T2 sequence (P08913 whole entry): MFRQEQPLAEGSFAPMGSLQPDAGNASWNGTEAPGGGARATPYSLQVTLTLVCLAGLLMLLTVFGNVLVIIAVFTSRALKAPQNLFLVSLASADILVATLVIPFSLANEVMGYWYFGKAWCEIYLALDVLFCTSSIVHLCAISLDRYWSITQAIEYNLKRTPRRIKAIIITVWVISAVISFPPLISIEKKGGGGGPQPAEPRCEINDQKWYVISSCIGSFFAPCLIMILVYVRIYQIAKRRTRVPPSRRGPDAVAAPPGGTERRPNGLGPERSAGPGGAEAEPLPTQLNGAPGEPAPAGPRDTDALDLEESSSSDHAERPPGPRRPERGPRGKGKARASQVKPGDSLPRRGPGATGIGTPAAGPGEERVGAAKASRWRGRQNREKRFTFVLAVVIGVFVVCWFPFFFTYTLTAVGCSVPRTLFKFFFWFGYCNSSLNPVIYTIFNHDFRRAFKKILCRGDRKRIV

[3] = target: 5-hydroxytryptamine receptor 7 (Homo sapiens, UniProt P34969)
[4] = target: T3, Endothelin receptor type B (Homo sapiens, UniProt P24530)
T3 sequence (P24530 whole entry): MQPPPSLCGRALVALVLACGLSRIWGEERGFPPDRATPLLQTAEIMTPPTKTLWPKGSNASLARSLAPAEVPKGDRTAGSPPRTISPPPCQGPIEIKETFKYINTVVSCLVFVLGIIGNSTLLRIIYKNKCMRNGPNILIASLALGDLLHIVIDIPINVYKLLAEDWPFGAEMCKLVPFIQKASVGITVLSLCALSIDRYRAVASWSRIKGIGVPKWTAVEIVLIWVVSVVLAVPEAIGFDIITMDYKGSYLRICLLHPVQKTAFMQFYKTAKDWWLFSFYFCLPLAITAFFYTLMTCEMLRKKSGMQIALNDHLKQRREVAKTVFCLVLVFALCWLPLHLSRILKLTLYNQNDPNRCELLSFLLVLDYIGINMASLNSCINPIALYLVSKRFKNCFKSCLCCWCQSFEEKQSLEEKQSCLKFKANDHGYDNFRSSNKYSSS

[5] = target: Voltage-dependent N-type calcium channel subunit alpha-1B (Rattus norvegicus, UniProt Q02294); type: functional
[6] = target: 5-hydroxytryptamine receptor 2B (Homo sapiens, UniProt P41595)
[7] = target: T4, D(4) dopamine receptor (Homo sapiens, UniProt P21917)
T4 sequence (P21917 whole entry): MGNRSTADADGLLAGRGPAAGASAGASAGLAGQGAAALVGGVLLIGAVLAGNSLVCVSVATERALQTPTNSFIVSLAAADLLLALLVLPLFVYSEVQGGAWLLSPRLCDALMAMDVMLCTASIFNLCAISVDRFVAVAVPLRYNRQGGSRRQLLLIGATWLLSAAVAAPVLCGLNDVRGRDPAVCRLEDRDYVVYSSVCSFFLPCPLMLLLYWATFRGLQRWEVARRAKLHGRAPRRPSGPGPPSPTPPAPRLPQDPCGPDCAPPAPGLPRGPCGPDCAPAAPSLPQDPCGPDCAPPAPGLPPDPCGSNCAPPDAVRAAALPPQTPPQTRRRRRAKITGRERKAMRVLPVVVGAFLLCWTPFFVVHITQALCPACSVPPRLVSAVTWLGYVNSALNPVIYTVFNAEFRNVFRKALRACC

[8] = target: T5, Corticotropin-releasing factor receptor 2 (Homo sapiens, UniProt Q13324)
T5 sequence (Q13324 whole entry): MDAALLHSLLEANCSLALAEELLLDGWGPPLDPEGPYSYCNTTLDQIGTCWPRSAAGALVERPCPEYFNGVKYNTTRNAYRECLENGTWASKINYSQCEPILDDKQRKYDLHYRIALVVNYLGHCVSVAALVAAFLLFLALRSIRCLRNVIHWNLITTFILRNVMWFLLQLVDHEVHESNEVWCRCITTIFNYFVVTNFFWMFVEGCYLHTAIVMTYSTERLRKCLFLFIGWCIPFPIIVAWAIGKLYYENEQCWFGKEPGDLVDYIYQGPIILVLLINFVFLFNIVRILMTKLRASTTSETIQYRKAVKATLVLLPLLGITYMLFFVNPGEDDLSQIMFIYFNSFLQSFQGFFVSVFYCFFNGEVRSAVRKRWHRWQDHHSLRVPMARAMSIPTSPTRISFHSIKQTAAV

[9] = target: Substance-P receptor (Homo sapiens, UniProt P25103)
[10] = target: 5-hydroxytryptamine receptor 6 (Homo sapiens, UniProt P50406)
[11] = target: Estrogen receptor beta (Homo sapiens, UniProt Q92731)
Also: assay procedure not described here.

Sequence of 5-hydroxytryptamine receptor 7 (P34969 whole entry): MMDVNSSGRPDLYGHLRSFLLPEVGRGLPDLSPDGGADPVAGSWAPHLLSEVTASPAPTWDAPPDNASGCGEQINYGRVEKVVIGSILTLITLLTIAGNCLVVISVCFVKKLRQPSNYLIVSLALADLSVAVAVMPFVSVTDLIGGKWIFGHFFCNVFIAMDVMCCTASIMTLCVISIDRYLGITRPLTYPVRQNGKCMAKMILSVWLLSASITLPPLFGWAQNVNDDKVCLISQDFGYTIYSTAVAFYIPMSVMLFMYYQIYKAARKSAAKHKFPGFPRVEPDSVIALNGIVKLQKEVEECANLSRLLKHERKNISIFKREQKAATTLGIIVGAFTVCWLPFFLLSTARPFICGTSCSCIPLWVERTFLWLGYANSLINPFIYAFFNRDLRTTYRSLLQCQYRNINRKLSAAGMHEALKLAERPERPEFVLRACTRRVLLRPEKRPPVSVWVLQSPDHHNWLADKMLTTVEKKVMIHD
Sequence of 5-hydroxytryptamine receptor 6 (P50406 whole entry): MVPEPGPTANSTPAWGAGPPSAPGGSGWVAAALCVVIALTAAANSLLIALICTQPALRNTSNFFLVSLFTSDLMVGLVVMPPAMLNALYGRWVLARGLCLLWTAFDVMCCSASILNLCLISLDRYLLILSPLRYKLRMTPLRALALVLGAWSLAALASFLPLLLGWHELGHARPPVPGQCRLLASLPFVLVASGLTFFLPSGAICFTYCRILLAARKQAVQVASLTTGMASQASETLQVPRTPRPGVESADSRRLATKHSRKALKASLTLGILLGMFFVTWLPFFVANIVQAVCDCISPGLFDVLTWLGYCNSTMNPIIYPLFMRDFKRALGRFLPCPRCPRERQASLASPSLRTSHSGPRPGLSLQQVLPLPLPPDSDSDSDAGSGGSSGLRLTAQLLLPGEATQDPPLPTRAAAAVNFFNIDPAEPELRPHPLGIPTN
Sequence of Estrogen receptor beta (Q92731 whole entry): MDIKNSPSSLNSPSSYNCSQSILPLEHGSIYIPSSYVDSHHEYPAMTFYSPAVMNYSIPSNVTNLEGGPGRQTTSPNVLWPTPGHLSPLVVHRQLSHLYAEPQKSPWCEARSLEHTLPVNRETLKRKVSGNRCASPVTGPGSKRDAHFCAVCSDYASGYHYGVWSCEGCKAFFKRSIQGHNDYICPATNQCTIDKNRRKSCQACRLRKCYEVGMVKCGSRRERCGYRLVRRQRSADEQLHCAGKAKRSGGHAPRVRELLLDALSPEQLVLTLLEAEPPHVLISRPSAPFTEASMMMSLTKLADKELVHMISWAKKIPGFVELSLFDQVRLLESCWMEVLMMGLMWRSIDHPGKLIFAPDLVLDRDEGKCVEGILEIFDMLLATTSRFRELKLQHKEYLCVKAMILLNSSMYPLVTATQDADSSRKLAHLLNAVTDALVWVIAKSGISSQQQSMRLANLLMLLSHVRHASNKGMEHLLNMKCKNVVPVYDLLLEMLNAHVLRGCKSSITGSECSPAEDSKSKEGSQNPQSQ
Sequence of Substance-P receptor (P25103 whole entry): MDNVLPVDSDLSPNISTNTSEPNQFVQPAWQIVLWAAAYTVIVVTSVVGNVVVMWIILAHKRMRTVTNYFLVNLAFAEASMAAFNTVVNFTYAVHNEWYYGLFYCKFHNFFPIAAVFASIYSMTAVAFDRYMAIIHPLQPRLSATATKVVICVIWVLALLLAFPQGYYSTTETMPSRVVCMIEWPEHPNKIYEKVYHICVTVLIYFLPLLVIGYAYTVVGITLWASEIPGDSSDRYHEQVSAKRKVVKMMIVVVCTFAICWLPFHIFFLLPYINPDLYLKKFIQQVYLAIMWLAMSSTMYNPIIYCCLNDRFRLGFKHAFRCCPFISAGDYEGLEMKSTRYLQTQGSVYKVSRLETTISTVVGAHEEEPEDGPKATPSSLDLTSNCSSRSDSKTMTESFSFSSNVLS
Sequence of 5-hydroxytryptamine receptor 2B (P41595 whole entry): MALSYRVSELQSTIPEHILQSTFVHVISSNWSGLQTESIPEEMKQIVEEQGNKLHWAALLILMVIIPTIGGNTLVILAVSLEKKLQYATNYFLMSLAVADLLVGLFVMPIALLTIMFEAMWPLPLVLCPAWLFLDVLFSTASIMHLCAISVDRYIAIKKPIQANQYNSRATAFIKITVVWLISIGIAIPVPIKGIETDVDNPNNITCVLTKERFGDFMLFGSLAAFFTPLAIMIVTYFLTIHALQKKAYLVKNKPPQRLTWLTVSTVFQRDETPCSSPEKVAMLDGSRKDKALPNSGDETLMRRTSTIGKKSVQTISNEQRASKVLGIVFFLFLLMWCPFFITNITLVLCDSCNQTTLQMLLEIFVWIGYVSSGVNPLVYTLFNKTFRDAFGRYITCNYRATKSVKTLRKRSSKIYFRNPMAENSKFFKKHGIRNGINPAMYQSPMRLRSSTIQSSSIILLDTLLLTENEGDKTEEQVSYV
Sequence of Voltage-dependent N-type calcium channel subunit alpha-1B (Q02294 whole entry): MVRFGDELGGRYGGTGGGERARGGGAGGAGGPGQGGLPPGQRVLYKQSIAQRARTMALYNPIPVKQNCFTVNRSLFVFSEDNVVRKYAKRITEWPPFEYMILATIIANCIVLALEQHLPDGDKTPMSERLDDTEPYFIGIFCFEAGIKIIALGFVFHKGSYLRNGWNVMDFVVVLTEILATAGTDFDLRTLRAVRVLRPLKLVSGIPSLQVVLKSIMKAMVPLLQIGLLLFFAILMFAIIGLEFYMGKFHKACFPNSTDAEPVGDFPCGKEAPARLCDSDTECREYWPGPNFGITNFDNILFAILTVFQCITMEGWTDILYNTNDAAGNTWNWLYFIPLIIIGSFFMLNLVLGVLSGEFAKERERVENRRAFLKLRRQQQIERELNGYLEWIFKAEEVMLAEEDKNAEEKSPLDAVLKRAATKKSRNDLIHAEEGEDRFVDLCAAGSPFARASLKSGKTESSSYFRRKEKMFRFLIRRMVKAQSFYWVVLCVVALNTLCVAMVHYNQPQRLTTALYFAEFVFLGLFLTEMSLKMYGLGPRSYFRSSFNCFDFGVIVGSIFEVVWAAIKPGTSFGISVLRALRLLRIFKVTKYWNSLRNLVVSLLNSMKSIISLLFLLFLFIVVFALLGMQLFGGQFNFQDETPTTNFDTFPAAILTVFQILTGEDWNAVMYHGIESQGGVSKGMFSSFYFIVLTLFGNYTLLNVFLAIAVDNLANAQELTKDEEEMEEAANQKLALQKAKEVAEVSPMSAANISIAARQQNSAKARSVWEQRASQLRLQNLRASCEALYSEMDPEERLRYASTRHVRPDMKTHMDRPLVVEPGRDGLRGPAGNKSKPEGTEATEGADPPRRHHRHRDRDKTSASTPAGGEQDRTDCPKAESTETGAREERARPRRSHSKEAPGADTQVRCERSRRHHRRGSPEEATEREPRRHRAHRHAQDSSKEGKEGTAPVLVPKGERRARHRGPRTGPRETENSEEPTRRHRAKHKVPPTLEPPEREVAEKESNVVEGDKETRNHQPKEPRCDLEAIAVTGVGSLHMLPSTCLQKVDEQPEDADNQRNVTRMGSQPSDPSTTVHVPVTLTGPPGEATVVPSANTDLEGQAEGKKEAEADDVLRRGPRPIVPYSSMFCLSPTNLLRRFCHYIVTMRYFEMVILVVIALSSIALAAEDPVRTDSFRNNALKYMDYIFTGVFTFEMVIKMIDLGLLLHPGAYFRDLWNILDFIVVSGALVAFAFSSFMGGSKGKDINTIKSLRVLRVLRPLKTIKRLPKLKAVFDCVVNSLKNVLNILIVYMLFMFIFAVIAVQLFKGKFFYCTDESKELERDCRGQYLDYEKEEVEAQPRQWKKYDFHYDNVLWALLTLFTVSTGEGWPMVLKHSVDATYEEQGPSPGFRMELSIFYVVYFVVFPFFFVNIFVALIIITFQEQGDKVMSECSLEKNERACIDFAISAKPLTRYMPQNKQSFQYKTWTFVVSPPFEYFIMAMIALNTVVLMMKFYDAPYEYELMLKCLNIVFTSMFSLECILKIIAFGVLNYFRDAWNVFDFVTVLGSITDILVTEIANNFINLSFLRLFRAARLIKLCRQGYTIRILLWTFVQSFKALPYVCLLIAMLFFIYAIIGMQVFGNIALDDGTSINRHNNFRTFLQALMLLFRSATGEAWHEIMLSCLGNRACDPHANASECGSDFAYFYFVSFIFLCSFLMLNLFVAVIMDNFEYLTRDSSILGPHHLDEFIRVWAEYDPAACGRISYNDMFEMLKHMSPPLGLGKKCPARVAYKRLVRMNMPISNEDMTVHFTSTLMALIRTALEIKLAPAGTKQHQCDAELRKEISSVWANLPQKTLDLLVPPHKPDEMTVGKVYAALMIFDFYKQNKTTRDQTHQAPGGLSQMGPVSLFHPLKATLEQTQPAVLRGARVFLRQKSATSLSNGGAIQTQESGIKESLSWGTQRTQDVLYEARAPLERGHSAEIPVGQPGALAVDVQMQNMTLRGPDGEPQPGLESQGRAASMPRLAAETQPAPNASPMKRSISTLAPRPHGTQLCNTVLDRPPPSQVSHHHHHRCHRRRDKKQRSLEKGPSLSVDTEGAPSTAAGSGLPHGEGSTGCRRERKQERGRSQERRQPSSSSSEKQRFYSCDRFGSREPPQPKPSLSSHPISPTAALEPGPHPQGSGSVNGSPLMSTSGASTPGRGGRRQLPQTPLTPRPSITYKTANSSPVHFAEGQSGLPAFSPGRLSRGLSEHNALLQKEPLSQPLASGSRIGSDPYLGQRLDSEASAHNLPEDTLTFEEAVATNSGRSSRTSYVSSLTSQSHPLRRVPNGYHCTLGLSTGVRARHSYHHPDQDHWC

Structure (SMILES)	AC50 [1]	AC50 [2]	AC50 [3]	AC50 [4]	AC50 [5]	AC50 [6]	AC50 [7]	AC50 [8]	AC50 [9]	AC50 [10]	AC50 [11]
CO/N=C(\C(=O)N[C@@H]1C(=O)N2C(C(=O)[O-])=C(C[N+]3(C)CCCC3)CS[C@H]12)c1csc(N)n1	> 300 µM	–	–	–	–	–	–	–	–	–	–
CCOC(=O)[C@H](CCc1ccccc1)N[C@@H](C)C(=O)N1CCC[C@H]1C(=O)O	–	> 10 µM	> 10 µM	> 30 µM	> 10 µM	> 10 µM	> 10 µM	> 30 µM	> 10 µM	> 10 µM	–
CC(=O)c1ccc2c(c1)N(CCCN1CCN(CCO)CC1)c1ccccc1S2 [ACETOPHENAZINE]	> 30 µM	–	–	–	–	–	–	–	–	–	–
Oc1ncnc2[nH]ncc12 [ALLOPURINOL]	–	> 10 µM	–	> 30 µM	> 10 µM	> 10 µM	> 10 µM	> 30 µM	> 10 µM	–	> 30 µM
CC(N)Cc1ccccc1 (stereo unspecified) [AMPHETAMINE]	> 30 µM	–	–	> 30 µM	> 10 µM	–	–	> 30 µM	–	–	> 30 µM
CN1CCCC(n2nc(Cc3ccc(Cl)cc3)c3ccccc3c2=O)CC1 (stereo unspecified) [AZELASTINE]	> 30 µM	–	–	–	–	–	–	–	–	–	–
CC(C)NCC(O)COc1ccc(COCCOC(C)C)cc1 (stereo unspecified) [BISOPROLOL]	–	> 10 µM	–	> 30 µM	> 10 µM	> 10 µM	> 10 µM	> 30 µM	> 10 µM	–	> 30 µM
COc1cc(Nc2c(C#N)cnc3cc(OCCCN4CCN(C)CC4)c(OC)cc23)c(Cl)cc1Cl [BOSUTINIB]	–	6.01 µM	> 10 µM	> 30 µM	> 10 µM	–	> 10 µM	> 30 µM	8 µM	> 10 µM	> 30 µM
N[C@@H](C(=O)N[C@@H]1C(=O)N2C(C(=O)O)=C(Cl)CS[C@H]12)c1ccccc1 [CEFACLOR ANHYDROUS]	> 30 µM	–	–	–	–	–	–	–	–	–	–
CCC[C@@H]1C[C@@H](C(=O)N[C@@H]([C@H]2O[C@H](SC)[C@H](O)[C@@H](O)[C@H]2O)[C@H](C)Cl)N(C)C1 [CLINDAMYCIN]	–	> 10 µM	–	> 30 µM	> 10 µM	> 10 µM	> 10 µM	> 30 µM	> 10 µM	–	> 30 µM
CN(C)CCCN1c2ccccc2CCc2ccc(Cl)cc21 [CLOMIPRAMINE]	–	> 10 µM	–	–	> 10 µM	–	–	–	–	–	–
CN(CCOc1ccc(NS(C)(=O)=O)cc1)CCc1ccc(NS(C)(=O)=O)cc1 [DOFETILIDE]	–	> 10 µM	–	> 30 µM	> 10 µM	> 10 µM	> 10 µM	> 30 µM	> 10 µM	–	–
COc1cc2c(cc1OC)C(=O)C(CC1CCN(Cc3ccccc3)CC1)C2 (stereo unspecified) [DONEPEZIL]	–	10.4 µM	> 10 µM	> 30 µM	–	–	0.824 µM	> 30 µM	> 10 µM	> 10 µM	> 30 µM
COC(=O)[C@@H]1CC2=CC(=O)CC[C@]2(C)[C@@]23O[C@@H]2C[C@@]2(C)[C@@H](CC[C@@]24CCC(=O)O4)[C@H]13 [EPLERENONE]	> 30 µM	> 10 µM	–	> 30 µM	> 10 µM	> 10 µM	–	> 30 µM	–	–	–
C#C[C@]1(O)CC[C@H]2[C@@H]3CCc4cc(O)ccc4[C@H]3CC[C@@]21C [ETHINYL ESTRADIOL]	–	> 10 µM	> 30 µM	> 30 µM	> 10 µM	> 30 µM	> 10 µM	> 30 µM	> 10 µM	> 30 µM	–
NC(N)=Nc1nc(CSCCC(N)=NS(N)(=O)=O)cs1 [FAMOTIDINE]	–	> 10 µM	> 10 µM	> 30 µM	> 10 µM	> 10 µM	> 10 µM	> 30 µM	> 10 µM	> 10 µM	–
CC(C)Cc1ccc(CC(=O)O)cc1 [IBUFENAC]	> 30 µM	–	–	–	–	–	–	–	–	–	–
CC(C)NNC(=O)c1ccncc1 [IPRONIAZID]	> 30 µM	–	–	–	–	–	–	–	–	–	–
CCN(CC)CCNC(=O)c1cc(Cl)c(N)cc1OC [METOCLOPRAMIDE]	–	7.32 µM	–	> 30 µM	> 10 µM	0.314 µM	1.16 µM	> 30 µM	> 10 µM	–	> 30 µM
Cc1cccc(C)c1OCC(C)N (stereo unspecified) [MEXILETINE]	> 30 µM	–	–	–	–	–	–	–	–	–	–
NC(=O)c1ncn([C@@H]2O[C@H](CO)[C@@H](O)[C@H]2O)c1O [MIZORIBINE]	> 30 µM	–	–	–	–	–	–	–	–	–	–
CCc1nn(CCCN2CCN(c3cccc(Cl)c3)CC2)c(=O)n1CCOc1ccccc1 [NEFAZODONE]	–	–	0.237 µM	> 30 µM	> 10 µM	0.084 µM	0.271 µM	> 30 µM	2.45 µM	0.808 µM	> 30 µM
OCCN1CCN(CCCN2c3ccccc3C=Cc3ccccc32)CC1 [OPIPRAMOL]	> 30 µM	–	–	–	–	–	–	–	–	–	–
CC(C(=O)O)c1ccc(N2CC=CC2)c(Cl)c1 (stereo unspecified) [PIRPROFEN]	–	> 10 µM	–	> 30 µM	> 10 µM	> 10 µM	> 10 µM	> 30 µM	> 10 µM	–	> 30 µM
CC[C@H](C)C(=O)O[C@H]1C[C@H](O)C=C2C=C[C@H](C)[C@H](CC[C@@H](O)C[C@@H](O)CC(=O)O)[C@H]21 [PRAVASTATIN]	> 30 µM	–	–	–	–	–	–	–	–	–	–
NC(=O)c1cnccn1 [PYRAZINAMIDE]	–	> 10 µM	> 10 µM	> 30 µM	> 10 µM	> 10 µM	> 10 µM	> 30 µM	–	> 10 µM	> 30 µM
OCc1cc([C@@H](O)CNCCCCCCOCCOCc2c(Cl)cccc2Cl)ccc1O [VILANTEROL]	> 30 µM	–	–	–	–	–	–	–	–	–	–
O=C(CCCCCCC(=O)Nc1ccccc1)NO [VORINOSTAT]	–	> 10 µM	> 10 µM	> 10 µM	> 10 µM	> 10 µM	> 10 µM	–	> 10 µM	> 10 µM	–
